The values that follow come from article PMC4560162, “Discovery of small molecule inhibitors of xyloglucan endotransglucosylase (XET) activity by high-throughput screening” (Phytochemistry, 2015).

Values joined by “and” are separate entries in the source; they are usually repeats but may differ in a detail not shown here. Identical values can stand only once. Like-named read-outs stand apart in the source and are kept apart here.

Series [1] relates to Petroselinum xyloglucan endotransglucosylase (XET) activity. Kind of series: Fluorescent dot-blot XET screen (cellulose-bound xyloglucan + XGO–SR on paper, in the dark). To be noted: for effect on XET activity in dot-blot (inhibition / promotion): EDI 0.4 mg/ml, LATCA 50 μM, 2 h, dark, cellulose-bound xyloglucan. The class given is biochemical, parsley. The procedure: For inhibitor screening, 53 new 96-well plates were set up with 50 μl of parsley enzyme extract per well, and 1 μl of DMSO-solubilised xenobiotic was added to each well, giving concentrations of 0.4 mg/ml (EDI collection, with exceptions noted in Table S2) or 50 μM (LATCA collection) and 2% v/v DMSO.
XET test-paper was prepared as before ([Fry, 1997]) and 112 × 75-mm sheets were attached to cellulose acetate overhead-projector sheets with ‘Spraymount’ adhesive. Each sheet was placed on a pre-cooled glass plate in a cold room at 4 °C.
For inhibitor screening (Fig. 2), 4 μl of a parsley enzyme/xenobiotic mixture was applied to each position on a sheet. Incubation at 20 °C for 2 h, washing, drying and photography were conducted essentially as above.

For the next series, the system named is parsley XET activity. Briefly: Radiochemical XET assay (soluble xyloglucan + [3H]XXXGol). Type of series: biochemical. The settings on record: for effect on XET activity, radiochemical re-screen of 206 compounds (mostly LATCA): LATCA approx. 25 μM, EDI approx. 200 μg/ml, listed in order of decreasing effectiveness; for effect on XET activity, first radiochemical re-screen of EDI hits: most xenobiotics at 200 μg/ml (≈200–800 μM); for IC50: read-out: IC50 (concentration required for 50% inhibition of XET activity), radiochemical assay, 20 °C; for IC50 / effect on XET activity in radiochemical assays (as summarised in the discussion): soluble xyloglucan, laboratory light; for effect on XET activity in radiochemical assays (as summarised in the discussion): free solution. The procedure:
The parsley enzyme concentration was held constant, and the xenobiotics were tested at 200, 160, 120, 80, 40, 20, 10 and 0 μg/ml (concentrations in the final reaction mixture). Other details were as above.
The riboflavin-free controls received the same DMSO concentration.

In series [2] the test system is Rosa cell-suspension cultures. Briefly: Membrane function ([14C]proline uptake) in Rosa culture. To be noted: 4 d after xenobiotic. Type of series: cell-based, Rosa ("Paul's Scarlet" rose). The procedure: Before testing the effects of XET-inhibitors on cell expansion, we defined their non-toxic concentrations. The eight XET-inhibiting xenobiotics mentioned in §2.7 were tested for cytotoxicity in cultured Rosa and Zea cells, by simple tests of the compounds’ ability to inhibit membrane and ribosome function based on [^14C]proline uptake and incorporation. In xenobiotic-free control 4-d-old Rosa cultures, 93.3% and 94.3% of the supplied [^14C]proline was absorbed from the medium within 2 and 4 h respectively, indicating healthy membrane function. In xenobiotic-free 4-d-old Zea cultures, the corresponding figures were 93.9% and 92.5%. By 4 h, 5.5% of the total [^14C]proline supplied had been incorporated into protein by Rosa and 9.3% by Zea cells, indicating healthy ribosome function. Against these control rates, we recorded any inhibition of membrane and ribosome function by the xenobiotics (Fig. 8). Each xenobiotic was tested at two concentrations (¼ and ^1/20 of the lowest non-tolerated concentration), which had been selected on the basis of preliminary experiments with a dilution series of the xenobiotic.
Eight xenobiotics that inhibited XET activity were selected for biological testing. Mini-cultures [2 ml, 5% (v/v) SCV; transferred from a standard culture 7 d after sub-culturing] were incubated in 12-well tissue culture microplates with the lids closed loosely. Xenobiotics were added as concentrated stocks in DMSO (final DMSO concentration 2%), and incubation was continued aseptically under standard conditions of temperature, lighting and shaking. After 4 d, 1 kBq of [^14C]proline was added per mini-culture. […] The culture was brought up to 10 ml with water and the settled and packed cell volumes (SCV, PCV) were then measured ([Fry and Street, 1980]). […] After 0.5 h at 100 °C, a 100-μl aliquot of the centrifuged SDS-extract was dried onto Whatman No. 3 paper, which was then washed in 75% ethanol supplemented with 0.5% acetic acid, thus removing free [^14C]proline and its low-Mr metabolites if any; radioactivity remaining on the paper ([^14C]protein) was then assayed.

The subject of series [3] is Zea cell-suspension cultures. Kind of series: Membrane function ([14C]proline uptake) in Zea culture. To be noted: 4 d after xenobiotic. The class given is cell-based, Zea mays.
The subject of series [4] is nine other cell-wall enzyme activities. Briefly: Dot-blot assays for nine additional wall enzyme activities. The class given is biochemical, parsley and lucerne (alfalfa). The settings on record: xenobiotic 200 mg/l. The procedure:
Radiolabelled oligosaccharide ([1-^3H]Gal12-ol or [1-^3H]Xyl6-ol; 1 kBq; containing a trace of Orange G) was dried into each well of a 96-well plate. […] The mixture was incubated for 24 h (for Gal12-ol) or 48 h (for Xyl6-ol), then the 5-μl reaction mixture was dried onto each position on a piece of plain Whatman No. 1 paper in 96-well format. Visual inspection of the Orange G verified that the samples had been correctly applied to the paper. […] Thus, in this assay, radioactive spots reveal inhibition of the enzyme.

Series [5] deals with Zea cell-suspension cultures. Kind of series: Cell expansion (SCV, PCV) in Zea cell-suspension culture. The class given is cell-based, Zea mays. The settings on record: for concentration inhibiting growth (PCV) without membrane impairment: Zea, 4 d incubation. The procedure:
(§1) Cell-suspension cultures of “Paul’s Scarlet” rose [a complex hybrid; genus Rosa; isolated in October 1957 from sections of young stem material; [Nickell and Tulecke, 1959]) and maize (Zea mays L., Black Mexican Sweetcorn, donated by Dr. I. Moore, Department of Botany, University of Edinburgh) were grown under constant dim illumination (10 μmol m^−2 s^−1) on an orbital shaker at 25 °C. Rose cells were maintained as described by [Chormova et al. (2014)] and maize cells as described by [Kerr and Fry (2003)].
(§2) Eight xenobiotics that inhibited XET activity were selected for biological testing. Mini-cultures [2 ml, 5% (v/v) SCV; transferred from a standard culture 7 d after sub-culturing] were incubated in 12-well tissue culture microplates with the lids closed loosely. Xenobiotics were added as concentrated stocks in DMSO (final DMSO concentration 2%), and incubation was continued aseptically under standard conditions of temperature, lighting and shaking. After 4 d, 1 kBq of [^14C]proline was added per mini-culture. A small volume of medium (50 μl) was sampled 2 and 4 h after [^14C]proline addition and assayed for remaining extracellular ^14C. The culture was brought up to 10 ml with water and the settled and packed cell volumes (SCV, PCV) were then measured ([Fry and Street, 1980]). Most of the culture medium was then removed and the cells were finally killed by addition of 0.5 ml of 6% SDS. After 0.5 h at 100 °C, a 100-μl aliquot of the centrifuged SDS-extract was dried onto Whatman No. 3 paper, which was then washed in 75% ethanol supplemented with 0.5% acetic acid, thus removing free [^14C]proline and its low-Mr metabolites if any; radioactivity remaining on the paper ([^14C]protein) was then assayed.

Series [6] has as its system Rosa cell-suspension cultures. Briefly: Cell expansion (SCV, PCV) in Rosa cell-suspension culture. The class given is cell-based, Rosa ("Paul's Scarlet" rose). The settings on record: for concentration inhibiting growth (PCV) without membrane impairment: Rosa, 4 d incubation. The procedure: as §1, §2
For series [7], the target named is cyclic-AMP-dependent protein kinase, PKA. On the set-up: method as in Losiewicz et al., 1994. The settings on record: ref Losiewicz et al., 1994; cited from earlier work.

For `CC1=C(/C=C/C(C)=C/C=C/C(C)=C\C(=O)O)C(C)(C)CCC1` [13-cis-retinoic acid], the “effect on XET activity in dot-blot (inhibition / promotion)” value (from here on “effect … (inhibition / promotion)”) in series [1] was “did not show inhibitory effects”. The “effect on XET activity, radiochemical re-screen of 206 compounds (mostly LATCA)” value (from here on “effect on XET activity … (mostly LATCA)”) in the series with parsley XET activity was “inhibition”. Also, the values for the membrane function entry in series [2] (higher tested concentration) and in series [3] (at the concentrations tested) were “impaired” and “only slightly”, respectively.
`CCOc1ccc(Nc2ccc(/C(=C3C=C/C(=[N+](/CC)Cc4cccc(S(=O)(=O)[O-])c4)C=C/3C)c3ccc(N(CC)Cc4cccc(S(=O)(=O)O)c4)cc3C)cc2)cc1` [brilliant blue G]: the “effect on XET activity, first radiochemical re-screen of EDI hits” value in the series on parsley XET activity is listed as “inhibitory”. Moreover, the “number of the nine other wall enzyme activities inhibited” value in series [4] was “three”. In addition, the “concentration inhibiting growth (PCV) without membrane impairment” value in series [5] was found to be 100 µM. Further, the membrane function entry in series [2] (higher tested concentration) and in series [3] (higher tested concentration) was “impaired” throughout.
As to `O=C(O[C@@H]1Cc2c(O)cc(O)cc2O[C@@H]1c1cc(O)c(O)c(O)c1)c1cc(O)c(O)c(O)c1` [epigallocatechin gallate, (−)-epigallocatechin gallate], the “effect … (inhibition / promotion)” value in series [1] is “promoted”; in series [1] (listed as (−)-epigallocatechin gallate) it was “coagulating promoter”. The “coagulation ('type c' effect) in dot-blot” value in series [1] (EDI collection, 0.4 mg/ml in enzyme mixture) is “coagulation”. In addition, the IC50 with parsley XET activity (2 h) is approximately 400 µM. Also, the “effect on XET activity in radiochemical assays (as summarised in the discussion)” value with parsley XET activity is recorded as “inhibited”. The “number of the nine other wall enzyme activities inhibited” value in series [4] was “eight”. Also, the “concentration inhibiting growth (PCV) without membrane impairment” value in series [6] came to 870 µM; in series [5], 40 µM. Further, in series [3] (higher tested concentration), the membrane function result is reported as “impaired”.
Consider `CN1CC[C@H](c2c(O)cc(O)c3c(=O)cc(-c4ccccc4Cl)oc23)[C@H](O)C1` [flavopiridol], for which the IC50 in series [7] is 145 µM.
Consider `Cc1cc2nc3c(=O)[nH]c(=O)nc-3n(C[C@H](O)[C@H](O)[C@H](O)CO)c2cc1C` [riboflavin], for which the “[3H]Xyloglucan formed, Low light” value with parsley XET activity (0.5 mM riboflavin, 0.2 lux, 2 h, control without riboflavin 8861 ± 105, mean ± SE of 4) worked out at 5390 ± 130 cpm. Besides, in the series with parsley XET activity (0.5 mM riboflavin, 1100 lux, 2 h, control without riboflavin 8942 ± 349, mean ± SE of 4), the “[3H]Xyloglucan formed, High light” value was determined as 807 ± 63 cpm. Moreover, in the series on parsley XET activity, the “effect on XET activity … (mostly LATCA)” value is “inhibition”. Besides, the IC50 in the series on parsley XET activity (2 h) is 29 µM and ~30 µM. In series [4], the “number of the nine other wall enzyme activities inhibited” value is “eight”. For the same molecule, in series [3] (at the concentrations tested), the membrane function result is reported as “impaired”.
Consider `COC(=O)/C(=C1/OC(=O)C(c2ccccc2)=C1O)c1ccccc1` [vulpinic acid], for which the “effect … (inhibition / promotion)” value in series [1] is reported as “did not show inhibitory effects”. Moreover, the “effect on XET activity in radiochemical assays (as summarised in the discussion)” value in the series with parsley XET activity is given as “inhibitor”. Further, the “number of the nine other wall enzyme activities inhibited” value in series [4] is listed as “two”. Further, the membrane function entry in series [2] (at the concentrations tested) is recorded as “impaired”.
As for erythrosin B, in the series on parsley XET activity, the “effect on XET activity … (mostly LATCA)” value was “inhibition” and the “effect on XET activity, first radiochemical re-screen of EDI hits” value is “inhibitory”. In the series on parsley XET activity (2 h), the IC50 turned out to be 36 µM. For the same molecule, the IC50 in the series on parsley XET activity (2 h, listed as erythrosin B) was approximately 30 µM. The “concentration that inhibited cell expansion (abstract)” value in series [6] (Rosa cell-suspension culture) was 1 µM. The “concentration inhibiting growth (PCV) without membrane impairment” value in series [6] was determined as 1.1 µM. Further, the “concentration that inhibited cell expansion / culture growth (abstract)” value in series [5] (Zea cell-suspension culture) stood at 1 µM. Further, the membrane function result in series [3] (at the concentrations tested) is on record as “impaired”.
